In US20100216779A1 (GLAXOSMITHKLINE LLC, priority 2007, published 2010):

What was measured:
Assay type in all cases: cell-based
[1] = test system: COLO205 (colon); assay: Inhibition of cell proliferation, CellTiter-Glo, COLO205; conditions: Homo sapiens, COLO 205, 72 h
How it was run: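 Exponentially growing COLO205 cells in medium with 10% FBS were plated below 2000 cells/well at 37 °C, 5% CO2. Untreated wells served as controls.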

[2] = test system: NCI-H929 (multiple myeloma); assay: Inhibition of cell proliferation, CellTiter-Glo, NCI-H929; conditions: Homo sapiens, 72 h
How it was run: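 Cells were grown in medium with 10% FBS at 37° C, 5% CO2. Cell number was read as CellTiter-Glo luminescence (cellular ATP), with untreated wells as control.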

[3] = target: T1, human IGF-1R (NIH-3T3 cells over expressing human IGF-1R) (Homo sapiens, UniProt P08069); assay: IGF-1R cellular autophosphorylation (DELFIA); conditions: IGF-1 stimulated
T1 construct: expressed in transfected cells; host or cells: NIH-3T3 (mouse fibroblasts)
T1 sequence (P08069 31-1367): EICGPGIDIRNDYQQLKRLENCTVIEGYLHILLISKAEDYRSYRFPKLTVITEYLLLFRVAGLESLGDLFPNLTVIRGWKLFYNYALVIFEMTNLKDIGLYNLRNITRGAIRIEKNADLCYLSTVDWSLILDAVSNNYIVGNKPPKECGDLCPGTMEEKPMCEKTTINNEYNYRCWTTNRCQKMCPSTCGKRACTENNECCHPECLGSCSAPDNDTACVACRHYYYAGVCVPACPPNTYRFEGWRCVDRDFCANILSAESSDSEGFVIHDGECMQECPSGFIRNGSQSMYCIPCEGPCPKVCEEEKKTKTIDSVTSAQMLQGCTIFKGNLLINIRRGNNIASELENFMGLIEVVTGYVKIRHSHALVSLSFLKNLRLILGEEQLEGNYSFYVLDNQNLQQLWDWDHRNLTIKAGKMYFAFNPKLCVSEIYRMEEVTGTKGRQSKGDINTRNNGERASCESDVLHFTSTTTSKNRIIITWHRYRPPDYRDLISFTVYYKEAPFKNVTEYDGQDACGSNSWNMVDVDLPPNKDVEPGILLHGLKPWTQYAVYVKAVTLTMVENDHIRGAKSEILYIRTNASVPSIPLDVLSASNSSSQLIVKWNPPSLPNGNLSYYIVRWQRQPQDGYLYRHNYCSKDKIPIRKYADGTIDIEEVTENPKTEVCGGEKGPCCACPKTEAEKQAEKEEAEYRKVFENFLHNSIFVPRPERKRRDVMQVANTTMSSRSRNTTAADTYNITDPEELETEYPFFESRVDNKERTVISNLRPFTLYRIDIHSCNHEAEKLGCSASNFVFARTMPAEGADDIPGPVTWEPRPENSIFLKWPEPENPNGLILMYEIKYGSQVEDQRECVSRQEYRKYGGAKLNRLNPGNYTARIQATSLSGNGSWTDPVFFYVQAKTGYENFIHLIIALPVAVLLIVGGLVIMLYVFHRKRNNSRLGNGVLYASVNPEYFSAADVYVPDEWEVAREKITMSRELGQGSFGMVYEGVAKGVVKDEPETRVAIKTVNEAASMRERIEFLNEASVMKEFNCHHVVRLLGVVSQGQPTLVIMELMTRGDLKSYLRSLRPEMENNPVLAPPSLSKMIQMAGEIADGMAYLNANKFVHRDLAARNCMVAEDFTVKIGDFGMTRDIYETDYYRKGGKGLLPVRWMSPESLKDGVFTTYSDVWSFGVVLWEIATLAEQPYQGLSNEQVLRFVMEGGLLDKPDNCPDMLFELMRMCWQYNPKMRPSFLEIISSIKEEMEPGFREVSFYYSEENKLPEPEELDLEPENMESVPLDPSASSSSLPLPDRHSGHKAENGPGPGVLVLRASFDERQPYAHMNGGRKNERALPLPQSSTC
How it was run: (§1)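 Receptor-overexpressing NIH-3T3, 10% FBS, 37 °C; cpd 30 uM–1.5 nM × 2 h; stim IGF-1 30 ng/mL (IGF-1R) or insulin 3 ug/mL (IR), 15 min; lysate DELFIA, Eu anti-pTyr; % of stimulated signal.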

[4] = target: T2, IR (NIH-3T3 cells over expressing human IGF-1R or IR) (Homo sapiens, UniProt P06213); assay: IR cellular autophosphorylation (DELFIA); conditions: NIH-3T3 cells over expressing IR, insulin stimulated
T2 construct: expressed in transfected cells; host or cells: NIH-3T3 (mouse fibroblasts)
T2 sequence (P06213 28-1382): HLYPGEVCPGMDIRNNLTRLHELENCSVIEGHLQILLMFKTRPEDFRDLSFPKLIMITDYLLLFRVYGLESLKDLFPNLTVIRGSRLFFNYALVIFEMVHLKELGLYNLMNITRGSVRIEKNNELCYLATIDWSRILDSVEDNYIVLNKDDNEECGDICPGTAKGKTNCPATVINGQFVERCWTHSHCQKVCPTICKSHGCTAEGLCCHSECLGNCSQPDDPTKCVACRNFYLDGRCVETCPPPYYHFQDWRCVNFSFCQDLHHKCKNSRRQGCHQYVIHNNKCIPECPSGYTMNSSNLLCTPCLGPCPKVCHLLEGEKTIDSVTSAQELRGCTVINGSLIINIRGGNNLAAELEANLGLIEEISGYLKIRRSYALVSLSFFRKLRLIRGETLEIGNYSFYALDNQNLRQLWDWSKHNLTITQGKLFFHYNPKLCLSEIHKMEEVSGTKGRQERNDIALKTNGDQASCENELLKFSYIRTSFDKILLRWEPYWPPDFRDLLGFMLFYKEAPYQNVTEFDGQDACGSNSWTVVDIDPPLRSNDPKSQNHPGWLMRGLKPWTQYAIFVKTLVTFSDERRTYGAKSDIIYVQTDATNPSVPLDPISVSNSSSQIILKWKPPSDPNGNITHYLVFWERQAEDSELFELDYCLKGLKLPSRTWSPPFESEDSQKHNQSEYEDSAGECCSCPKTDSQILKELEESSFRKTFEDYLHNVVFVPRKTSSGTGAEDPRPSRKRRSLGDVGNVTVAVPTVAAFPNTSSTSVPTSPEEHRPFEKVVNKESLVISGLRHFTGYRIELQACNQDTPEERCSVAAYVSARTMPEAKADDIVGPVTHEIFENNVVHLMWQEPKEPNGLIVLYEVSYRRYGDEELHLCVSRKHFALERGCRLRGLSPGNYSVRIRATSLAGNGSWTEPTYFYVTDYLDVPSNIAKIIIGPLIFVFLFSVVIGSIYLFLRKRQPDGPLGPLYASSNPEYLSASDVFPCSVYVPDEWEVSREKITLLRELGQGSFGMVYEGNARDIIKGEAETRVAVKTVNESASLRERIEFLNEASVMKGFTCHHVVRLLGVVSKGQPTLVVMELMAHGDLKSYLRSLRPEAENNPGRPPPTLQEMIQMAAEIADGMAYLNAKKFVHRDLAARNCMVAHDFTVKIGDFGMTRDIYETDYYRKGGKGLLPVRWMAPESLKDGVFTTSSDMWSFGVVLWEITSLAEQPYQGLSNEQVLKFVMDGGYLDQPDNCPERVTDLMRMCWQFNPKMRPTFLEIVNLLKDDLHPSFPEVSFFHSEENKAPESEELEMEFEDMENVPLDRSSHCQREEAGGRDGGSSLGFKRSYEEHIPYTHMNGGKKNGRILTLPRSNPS
How it was run: as §1

SMILES	IC50 [1]	IC50 [2]	IC50 [3]	IC50 [4]
CCOc1ccc(-c2nc3ccccn3c2-c2ccnc(Nc3ccc(N4CCN(S(C)(=O)=O)CC4)cc3OC)n2)cc1C(=O)Nc1c(F)cccc1F [Example 232, N-(2,6-difluorophenyl)-2-(ethyloxy)-5-{3-[2-({2-(methyloxy)-4-[4-(methylsulfonyl)-1-piperazinyl]phenyl]amino)-4-pyrimidinyl]imidazo[1,2-a]pyridin-2-yl}benzamide]	< 250 nM	< 250 nM	< 100 nM	< 100 nM
COc1cc(N2CCC(CCS(C)(=O)=O)CC2)c(C)cc1Nc1nccc(-c2c(-c3ccc(OC)c(C(=O)Nc4c(F)cccc4F)c3)nc3ccccn23)n1 [Example 230, N-(2,6-difluorophenyl)-5-(3-{2-[(5-methyl-2-(methyloxy)-4-{4-[2-(methylsulfonyl)ethyl]-1-piperidinyl}phenyl)amino]-4-pyrimidinyl}imidazo[1,2-a]pyridin-2-yl)-2-(methyloxy)benzamide]	< 250 nM	< 250 nM	< 100 nM	< 100 nM
CCOc1cc(N2CCC(N3CCN(CCS(C)(=O)=O)CC3)CC2)ccc1Nc1nccc(-c2c(-c3cccc(C(=O)Nc4c(F)cccc4F)c3)nc3ccccn23)n1 [Example 119, N-(2,6-difluorophenyl)-3-[3-(2-{[2-(ethyloxy)-4-(4-{4-[2-(methylsulfonyl)ethyl]-1-piperazin-yl]-1-piperidinyl)phenyl]amino}-4-pyrimidinyl)imidazo[1,2-a]pyridin-2-yl]benzamide]	250 to 1000 nM	< 250 nM	< 100 nM	< 100 nM
COc1cc(N2CCN(CCS(C)(=O)=O)CC2)c(Cl)cc1Nc1nccc(-c2c(-c3ccc(OC)c(C(=O)Nc4c(F)cccc4F)c3)nc3ccccn23)n1 [Example 213, 5-(3-{2-[(5-chloro-2-(methyloxy)-4-{4-[2-(methylsulfonyl)ethyl]-1-piperazinyl}phenyl)amino]-4-pyrimidinyl}imidazo[1,2-a]pyridin-2-yl)-N-(2,6-difluorophenyl)-2-(methyloxy)benzamide]	< 250 nM	< 250 nM	< 100 nM	< 100 nM
COc1cc(N2CCC(N3CCN(CCS(C)(=O)=O)CC3)CC2)c(Cl)cc1Nc1nccc(-c2c(-c3cccc(C(=O)Nc4c(F)cccc4F)c3)nc3ccccn23)n1 [Example 114, 3-[3-(2-{[5-chloro-2-(methyloxy)-4-(4-{4-[2-(methylsulfonyl)ethyl]-1-piperazinyl}-1-piperidinyl)phenyl]amino}-4-pyrimidinyl)imidazo[1,2-a]pyridin-2-yl]-N-(2,6-difluorophenyl)-benzamide]	250 to 1000 nM	< 250 nM	< 100 nM	< 100 nM
CCCN1CCN(c2ccc(Nc3nccc(-c4c(-c5cccc(C(=O)Nc6c(F)cccc6F)c5)nc5ccccn45)n3)c(OC)c2)CC1 [Example 173, N-(2,6-difluorophenyl)-3-[3-(2-{[2-(methyloxy)-4-(4-propyl-1-piperazinyl)phenyl]amino}-4-pyrimidinyl)imidazo[1,2-a]pyridin-2-yl]benzamide]	250 to 1000 nM	250 to 1000 nM	< 100 nM	< 100 nM
COc1cc(N2CCC(N3CCC(C(F)(F)F)CC3)CC2)ccc1Nc1nccc(-c2c(-c3cccc(C(=O)Nc4c(F)cccc4F)c3)nc3ccccn23)n1 [Example 52, N-(2,6-difluorophenyl)-3-{3-[2-({2-(methyloxy)-4-[4-(trifluoromethyl)-1,4′-bipiperidin-1′-yl]phenyl}amino)-4-pyrimidinyl]imidazo[1,2-a]pyridin-2-yl}benzamide]	250 to 1000 nM	250 to 1000 nM	< 100 nM	100 to 500 nM
CCOc1cc(N2CCC(N3CCN(S(C)(=O)=O)CC3)CC2)ccc1Nc1nccc(-c2c(-c3cccc(C(=O)Nc4c(F)cccc4F)c3)nc3ccccn23)n1 [Example 224, N-(2,6-difluorophenyl)-3-(3-{2-[(2-(ethyloxy)-4-{4-[4-(methylsulfonyl)-1-piperazinyl]-1-piperidinyl}phenyl)amino]-4-pyrimidinyl}imidazo[1,2-a]pyridin-2-yl)benzamide]	250 to 1000 nM	< 250 nM	< 100 nM	< 100 nM
COc1cc(N2CCC(N3CCN(S(C)(=O)=O)CC3)CC2)ccc1Nc1nccc(-c2c(-c3ccc(OC(C)C)c(C(=O)Nc4c(F)cccc4F)c3)nc3ccccn23)n1 [Example 227, N-(2,6-difluorophenyl)-2-[(1-methylethyl)oxy]-5-(3-{2-[(2-(methyloxy)-4-{4-[4-(methylsulfonyl)-1-piperazinyl]-1-piperidinyl}phenyl)amino]-4-pyrimidinyl}imidazo[1,2-a]pyridin-2-yl)benzamide]	< 250 nM	< 250 nM	< 100 nM	< 100 nM
CCOc1cc(N2CCN(CCS(C)(=O)=O)CC2)ccc1Nc1nccc(-c2c(-c3ccc(OCC)c(C(=O)Nc4c(F)cccc4F)c3)nc3ccccn23)n1 [Example 144, N-(2,6-difluorophenyl)-2-(ethyloxy)-5-(3-{2-[(2-(ethyloxy)-4-{4-[2-(methylsulfonyl)ethyl)-1-piperazinyl}phenyl)amino]-4-pyrimidinyl}imidazo[1,2-a]pyridin-2-yl)benzamide]	< 250 nM	< 250 nM	< 100 nM	< 100 nM
COc1cc(N2CCC(CCS(C)(=O)=O)CC2)ccc1Nc1nccc(-c2c(-c3ccc(OC)c(C(=O)Nc4c(F)cccc4F)c3)nc3ccccn23)n1 [Example 201, N-(2,6-difluorophenyl)-2-(methyloxy)-5-(3-{2-[(2-(methyloxy)-4-{4-[2-(methylsulfonyl)ethyl]-1-piperidinyl}phenyl)amino]-4-pyrimidinyl}imidazo[1,2-a]pyridin-2-yl)benzamide]	250 to 1000 nM	< 250 nM	< 100 nM	< 100 nM
COc1cc(N2CCC(N3CCN(CCF)CC3)CC2)ccc1Nc1nccc(-c2c(-c3ccc(OC)c(C(=O)Nc4c(F)cccc4F)c3)nc3ccccn23)n1 [Example 61, N-(2,6-difluorophenyl)-5-[3-(2-{[4-{4-[4-(2-fluoroethyl)-1-piperazinyl]-1-piperidinyl}-2-(methyloxy)phenyl]amino}-4-pyrimidinyl)imidazo[1,2-a]pyridin-2-yl]-2-(methyloxy)benzamide]	250 to 1000 nM	< 250 nM	< 100 nM	< 100 nM
CCOc1cc(N2CCN(CCS(C)(=O)=O)CC2)c(C)cc1Nc1nccc(-c2c(-c3cccc(C(=O)Nc4c(F)cccc4F)c3)nc3ccccn23)n1 [Example 246, N-(2,6-difluorophenyl)-3-(3-{2-[(2-(ethyloxy)-5-methyl-4-{4-[2-(methylsulfonyl)ethyl]-1-piperazinyl}phenyl)amino]-4-pyrimidinyl}imidazo[1,2-a]pyridin-2-yl)benzamide]	< 250 nM	< 250 nM	< 100 nM	< 100 nM
CCCN1CCN(c2ccc(Nc3nccc(-c4c(-c5ccc(OC)c(C(=O)Nc6c(F)cccc6F)c5)nc5ccccn45)n3)c(OCC)c2)CC1 [Example 151, N-(2,6-difluorophenyl)-5-[3-(2-{[2-(ethyloxy)-4-[4-propyl-1-piperazinyl)phenyl]amino}-4-pyrimidinyl)imidazo[1,2-a]pyridin-2-yl]-2-(methyloxy)benzamide]	250 to 1000 nM	< 250 nM	< 100 nM	< 100 nM
